Measured values reported in ChEMBL document CHEMBL4371025, “Discovery and evaluation of novel FAAH inhibitors in neuropathic pain model” (Bioorg Med Chem Lett, 2019).

How the values were obtained:
[1] = Oral bioavailability in Sprague-Dawley rat at 10 mg/kg administered as single dose via gavage by LC-MS/MS analysis; type: ADME, organism-based; details: in vivo
[2] = Drug level in plasma of Sprague-Dawley rat at 10 mg/kg, po administered as single dose via gavage measured at 8 hrs by LC-MS/MS analysis; type: ADME, organism-based
[3] = Drug level in brain of Sprague-Dawley rat at 10 mg/kg, po administered as single dose via gavage measured at 8 hrs by LC-MS/MS analysis; type: ADME, organism-based; details: read-out: Drug uptake
CYP3A4 [4] = assay: Selectivity ratio of IC50 for CYP3A4 in human liver microsomes using testosterone as substrate to IC50 for human transmembrane domain deficient FFAH expressed in Escherichia coli; type: toxicity; details: probe testosterone, read-out: Ratio IC50
CYP2C19 = assay: Selectivity ratio of IC50 for CYP2C19 in human liver microsomes to IC50 for human transmembrane domain deficient FFAH expressed in Escherichia coli; type: toxicity; details: read-out: Ratio IC50
[5] = Intrinsic metabolic stability in rat liver microsomes assessed as metabolic turnover over per mg protein at 1 uM preincubated for 5 mins followed by NADPH cofactor addition and measured after 30 mins by LC-MS/MS analysis; type: ADME, Microsome; details: 0.5 h
[6] = Elimination half life in Sprague-Dawley rat at 3 mg/kg, iv or 10 mg/kg, po administered as single dose via gavage by LC-MS/MS analysis; type: ADME, organism-based; details: in vivo, read-out: beta t1/2 (converted)
[7] = target: T1, Fatty-acid amide hydrolase 1 (Rattus norvegicus, UniProt P97612); assay: Inhibition of rat FFAH expressed in Escherichia coli using AAMCA as substrate incubated for 1 min measured for 50 mins by fluorescence assay
T1 sequence (P97612 whole entry): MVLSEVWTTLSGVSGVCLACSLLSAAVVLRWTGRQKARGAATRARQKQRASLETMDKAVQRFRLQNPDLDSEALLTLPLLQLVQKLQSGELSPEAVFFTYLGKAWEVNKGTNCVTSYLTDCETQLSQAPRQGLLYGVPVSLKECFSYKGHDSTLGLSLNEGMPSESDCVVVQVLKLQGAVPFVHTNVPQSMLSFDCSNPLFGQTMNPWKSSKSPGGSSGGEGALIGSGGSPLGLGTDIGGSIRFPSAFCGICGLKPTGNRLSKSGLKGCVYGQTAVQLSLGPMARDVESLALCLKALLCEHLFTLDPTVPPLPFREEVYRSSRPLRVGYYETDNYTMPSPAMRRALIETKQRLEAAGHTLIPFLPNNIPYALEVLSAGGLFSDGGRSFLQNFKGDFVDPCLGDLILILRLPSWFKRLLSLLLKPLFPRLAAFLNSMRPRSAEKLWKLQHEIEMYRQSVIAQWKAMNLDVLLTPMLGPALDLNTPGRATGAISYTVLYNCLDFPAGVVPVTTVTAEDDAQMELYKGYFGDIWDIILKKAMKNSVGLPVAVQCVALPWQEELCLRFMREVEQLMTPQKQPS

[8] = AUC (0 to 48 hrs) in Sprague-Dawley rat at 3 mg/kg, iv administered as single dose by LC-MS/MS analysis; type: ADME, organism-based; set-up: dose 3 mg/kg, time < 48 hr, route intravenous; details: in vivo
[9] = Drug level in plasma of Sprague-Dawley rat at 10 mg/kg, po administered as single dose via gavage measured at 24 hrs by LC-MS/MS analysis; type: ADME, organism-based
CYP1A2 = assay: Selectivity ratio of IC50 for CYP1A2 in human liver microsomes to IC50 for human transmembrane domain deficient FFAH expressed in Escherichia coli; type: toxicity; details: read-out: Ratio IC50
[10] = Drug uptake in Sprague-Dawley rat brain at 3 mg/kg, iv or 10 mg/kg, po administered as single dose via gavage by LC-MS/MS analysis; type: ADME, organism-based; details: in vivo
[11] = Selectivity ratio of IC50 for MAGL (unknown origin) to IC50 for human transmembrane domain deficient FFAH expressed in Escherichia coli; type: toxicity
Cytochrome P450 1A2 = target: T2, Cytochrome P450 1A2 (Homo sapiens, UniProt P05177); assay: Inhibition of CYP1A2 in human liver microsomes using phenacetin as substrate preincubated for 5 mins followed by NADPH cofactor addition and measured after 10 mins by LC-MS/MS analysis; type: ADME
T2 sequence (P05177 whole entry): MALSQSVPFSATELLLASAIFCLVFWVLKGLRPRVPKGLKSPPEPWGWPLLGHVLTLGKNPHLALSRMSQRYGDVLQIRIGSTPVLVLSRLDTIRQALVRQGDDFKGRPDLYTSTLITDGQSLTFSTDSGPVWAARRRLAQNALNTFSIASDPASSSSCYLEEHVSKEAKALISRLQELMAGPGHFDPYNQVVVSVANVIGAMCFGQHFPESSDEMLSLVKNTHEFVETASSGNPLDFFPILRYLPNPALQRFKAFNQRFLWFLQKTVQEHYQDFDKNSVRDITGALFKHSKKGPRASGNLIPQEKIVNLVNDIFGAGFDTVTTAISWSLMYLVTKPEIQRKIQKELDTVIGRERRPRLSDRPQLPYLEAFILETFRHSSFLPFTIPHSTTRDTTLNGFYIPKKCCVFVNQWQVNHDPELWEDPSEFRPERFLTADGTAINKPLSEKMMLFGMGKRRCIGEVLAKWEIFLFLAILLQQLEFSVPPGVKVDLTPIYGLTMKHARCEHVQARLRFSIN

CYP3A4 [12] = assay: Selectivity ratio of IC50 for CYP3A4 in human liver microsomes using midazolam as substrate to IC50 for rat FFAH expressed in Escherichia coli; type: toxicity; details: probe midazolam, read-out: Ratio IC50
[13] = Ratio of drug level in brain to plasma in Sprague-Dawley rat at 3 mg/kg, iv or 10 mg/kg, po administered as single dose via gavage by LC-MS/MS analysis; type: ADME, organism-based; details: brain and plasma, read-out: BPR
[14] = Drug level in brain of Sprague-Dawley rat at 10 mg/kg, po administered as single dose via gavage measured at 32 hrs by LC-MS/MS analysis; type: ADME, organism-based; details: read-out: Drug uptake
[15] = Ratio of AUC (0 to 48 hrs) in liver to plasma of Sprague-Dawley rat at 10 mg/kg, po administered as single dose via gavage by LC-MS/MS analysis; type: ADME, organism-based; details: liver and plasma, read-out: Ratio AUC
CYP2C9 = assay: Selectivity ratio of IC50 for CYP2C9 in human liver microsomes to IC50 for rat FFAH expressed in Escherichia coli; type: toxicity; details: read-out: Ratio IC50
Cytochrome P450 2D6 = Cytochrome P450 2D6 (Homo sapiens, UniProt P10635); assay: Inhibition of CYP2D6 in human liver microsomes using dextromethorphan as substrate preincubated for 5 mins followed by NADPH cofactor addition and measured after 10 mins by LC-MS/MS analysis; type: ADME
Sequence of Cytochrome P450 2D6 (P10635 whole entry): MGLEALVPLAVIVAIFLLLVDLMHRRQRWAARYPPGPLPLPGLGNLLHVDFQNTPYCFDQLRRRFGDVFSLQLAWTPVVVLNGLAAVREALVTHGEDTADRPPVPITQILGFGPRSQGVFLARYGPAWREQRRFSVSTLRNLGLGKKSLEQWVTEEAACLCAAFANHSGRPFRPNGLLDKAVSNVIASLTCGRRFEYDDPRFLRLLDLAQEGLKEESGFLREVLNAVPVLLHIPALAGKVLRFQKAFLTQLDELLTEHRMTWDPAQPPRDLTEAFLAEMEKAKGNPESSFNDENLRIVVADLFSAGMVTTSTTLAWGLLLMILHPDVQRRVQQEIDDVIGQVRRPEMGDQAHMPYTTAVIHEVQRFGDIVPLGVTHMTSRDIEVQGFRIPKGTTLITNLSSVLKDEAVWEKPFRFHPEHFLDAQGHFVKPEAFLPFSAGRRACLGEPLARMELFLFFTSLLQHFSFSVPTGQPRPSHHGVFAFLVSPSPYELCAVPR

Compound	bioavailability [1] [%]	concentration at 8 h [2] [µM]	concentration at 8 h [3] [µM]	selectivity ratio (CYP3A4 [4])	selectivity ratio (CYP2C19)	Drug metabolism [5] [nmol/min/mg]	half-life [6] [h]	IC50 [7] [µM]	AUC(0-t) at 48 h [8] [µM·h]	concentration at 24 h [9] [µM]	selectivity ratio (CYP1A2)	Drug uptake [10] [%]	Ratio IC50 [11]	IC50 (Cytochrome P450 1A2) [µM]	selectivity ratio (CYP3A4 [12])	Kp [13]	concentration at 32 h [14] [µM]	Kp [15]	selectivity ratio (CYP2C9)	IC50 (Cytochrome P450 2D6) [µM]
Nc1ncc(C(=O)N[C@H]2CC/C(=C\c3cccc(Oc4ccc(C(F)(F)F)cn4)c3)CC2)cn1 (stereo not drawn)	46	7.3	7.2	> 5000	> 5000	≤ 0.04	17.2	0.0062	155	7	> 5000	50 to 80	> 10000	> 12.5	> 5000	0.8	2.3	4.3	> 5000	> 12.5
O=C(N[C@H]1CC/C(=C\c2cccc(Oc3ccc(C(F)(F)F)cn3)c2)CC1)c1cccnc1 (stereo not drawn)	35	3	4.7			< 0.04	5.1		47	0.5				> 10		1.5		10.5		> 10
Nc1ccc(C(=O)N[C@H]2CC/C(=C\c3cccc(Oc4ccc(C(F)(F)F)cn4)c3)CC2)cn1 (stereo not drawn)	42	8.2	5.2				9.2	0.0116	152	4.4				> 12.5		0.6	1.9	9.2		> 12.5
Cc1cc(C(=O)N[C@H]2CC/C(=C\c3cccc(Oc4ccc(C(F)(F)F)cn4)c3)CC2)cnc1N (stereo not drawn)	46	5.3	3.2	> 5000	> 5000	0.04 to 0.09	17	0.0092	109	3.3	> 5000	50 to 80	> 10000	> 12.5	> 5000	0.5	1.2	6.9	> 5000	> 12.5
